Results reported in the supplement of paper PMC9512659.

What was measured:
[1] = tested on: Mycobacterium tuberculosis Erdman (pMV306hsp+LuxG13); test: AUC25, normalised area under the dose-response curve up to IC25 (normalised AUC (unitless)); higher = more potent
Method: (§1)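 DiaMOND pairwise dose responses of an equipotent two-drug mixture (1.5-fold, 10-dose series) against autoluminescent M. tuberculosis Erdman in 384-well plates. Growth inhibition was read by OD600 (luminescence for dormancy) in seven media at a constant and a terminal time point; metrics are means of at least biological duplicates. Einf and AUC25 higher = more potent; GRinf lower = more potent; log2FIC negative = synergy.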

[2] = tested on: Mycobacterium tuberculosis Erdman (pMV306hsp+LuxG13); test: Einf, effect of the drug pair at infinite dose (maximum growth inhibition) (fraction inhibition (0-1)); higher = more potent; extreme values may be limits of the assay
Method: as §1

[3] = tested on: Mycobacterium tuberculosis Erdman (pMV306hsp+LuxG13); test: log2 fractional inhibitory concentration at 50% inhibition (log2 FIC); higher = more antagonistic
Method: as §1

[4] = tested on: Mycobacterium tuberculosis Erdman (pMV306hsp+LuxG13); test: log2 fractional inhibitory concentration at 90% inhibition (log2 FIC); higher = more antagonistic
Method: as §1

[5] = tested on: Mycobacterium tuberculosis Erdman (pMV306hsp+LuxG13); test: GRinf, normalised growth-rate inhibition at infinite dose (GR value (unitless, negative = killing)); higher = less potent
Method: as §1

CC(C)/N=c1\cc2n(-c3ccc(Cl)cc3)c3ccccc3nc-2cc1Nc1ccc(Cl)cc1 [clofazimine] + CC(=O)NC[C@H]1CN(c2ccc(N3CCSCC3)c(F)c2)C(=O)O1 [sutezolid]
Conditions	AUC25, [1]	Einf, [2]	GRinf, [5]	log2 fractional inhibitory concentration, [3]	log2 fractional inhibitory concentration, [4]
growth medium: acidic pH 5.7, glycerol, time point: constant time point	0.101	0.875	0.0525	0.684	–
growth medium: acidic pH 5.7, glycerol, time point: terminal time point	0.108	0.981	-0.188	-0.139	-0.457
growth medium: butyrate 5 mM, time point: constant time point	0.0828	0.911	0.00728	-1.05	–
growth medium: butyrate 5 mM, time point: terminal time point	0.0725	0.961	-0.00637	-1.03	-1.04
growth medium: cholesterol 0.05 mM, time point: constant time point	0.112	1	-1	-0.848	-0.263
growth medium: cholesterol 0.05 mM, time point: terminal time point	0.125	1	-0.651	-1.5	-0.782
growth medium: cholesterol 0.2 mM (cholesterol-high), time point: constant time point	0.1	0.983	-0.741	-0.164	-0.0175
growth medium: cholesterol 0.2 mM (cholesterol-high), time point: terminal time point	0.116	1	-0.833	-0.588	-0.392
growth medium: standard 7H9 OADC glycerol, time point: constant = terminal time point (4.2 d)	0.0934	0.967	-0.00824	-0.402	-0.528
growth medium: valerate 0.1%, time point: constant time point	0.118	0.949	-0.364	0.279	–
growth medium: valerate 0.1%, time point: terminal time point	0.0261	0.967	0.184	0.564	-1.6

growth medium: hypoxic dormancy (butyrate + nitrate), then recovery
Conditions	AUC25, [1]	Einf, [2]	GRinf, [5]	log2 fractional inhibitory concentration, [3]	log2 fractional inhibitory concentration, [4]
time point: constant time point	0.0485	0.988	0.181	-0.185	-0.341
time point: terminal time point	0.0291	0.974	0.351	0.178	-0.881

CC(C)/N=c1\cc2n(-c3ccc(Cl)cc3)c3ccccc3nc-2cc1Nc1ccc(Cl)cc1 [clofazimine] + CC(C)=CCC/C(C)=C/CNCCNC1C2CC3CC(C2)CC1C3 [SQ109]
Conditions	AUC25, [1]	Einf, [2]	GRinf, [5]	log2 fractional inhibitory concentration, [3]	log2 fractional inhibitory concentration, [4]
growth medium: butyrate 5 mM, time point: constant time point	0.0628	0.941	-0.113	-0.227	-0.83
growth medium: butyrate 5 mM, time point: terminal time point	0.0621	0.973	-0.111	-0.367	-0.678
growth medium: cholesterol 0.05 mM, time point: constant time point	0.0691	0.758	-0.558	-0.774	–
growth medium: cholesterol 0.2 mM (cholesterol-high), time point: constant time point	0.0566	0.997	-0.966	-0.041	-0.582
growth medium: cholesterol 0.2 mM (cholesterol-high), time point: terminal time point	0.0744	1	-0.823	0.4	-0.374
growth medium: standard 7H9 OADC glycerol, time point: constant = terminal time point (4.2 d)	0.0939	0.937	-0.0512	-0.519	–

growth medium: hypoxic dormancy (butyrate + nitrate), then recovery
Conditions	AUC25, [1]	Einf, [2]	GRinf, [5]	log2 fractional inhibitory concentration, [3]	log2 fractional inhibitory concentration, [4]
time point: constant time point	0.0761	0.99	-0.486	-1.61	-2.43
time point: terminal time point	0.0554	0.962	0.147	-1.78	-1.63

CC[C@@H](CO)NCCN[C@@H](CC)CO [ethambutol] + CC(=O)NC[C@H]1CN(c2ccc(N3CCSCC3)c(F)c2)C(=O)O1 [sutezolid]
Conditions	AUC25, [1]	Einf, [2]	GRinf, [5]	log2 fractional inhibitory concentration, [3]	log2 fractional inhibitory concentration, [4]
growth medium: acidic pH 5.7, glycerol, time point: constant time point	0.122	0.837	-0.0739	-0.476	–
growth medium: acidic pH 5.7, glycerol, time point: terminal time point	0.0981	0.989	-0.214	0.638	0.0843
growth medium: butyrate 5 mM, time point: constant time point	0.0681	0.911	0.0455	0.936	–
growth medium: butyrate 5 mM, time point: terminal time point	0.0502	0.954	0.0337	0.703	-0.108
growth medium: cholesterol 0.05 mM, time point: constant time point	0.121	1	-1	0.779	-0.482
growth medium: cholesterol 0.05 mM, time point: terminal time point	0.104	1	-0.945	-0.083	-1.28
growth medium: cholesterol 0.2 mM (cholesterol-high), time point: constant time point	0.0903	1	-1	-0.151	–
growth medium: cholesterol 0.2 mM (cholesterol-high), time point: terminal time point	0.109	1	-0.852	-0.578	-0.0598
growth medium: standard 7H9 OADC glycerol, time point: constant = terminal time point (4.2 d)	0.0717	0.982	-0.118	0.607	0.432
growth medium: valerate 0.1%, time point: constant time point	0.132	0.931	-1	-0.351	–
growth medium: valerate 0.1%, time point: terminal time point	0.0852	0.975	-0.02	0.139	0.287

growth medium: hypoxic dormancy (butyrate + nitrate), then recovery
Conditions	AUC25, [1]	Einf, [2]	GRinf, [5]	log2 fractional inhibitory concentration, [3]	log2 fractional inhibitory concentration, [4]
time point: constant time point	0.0614	0.989	-0.104	0.45	–
time point: terminal time point	0.0966	0.979	-0.187	1.4	0.341
